Data as given in ChEMBL document CHEMBL1135899, “Design, synthesis, and evaluation of opioid analogues with non-peptidic beta-turn scaffold: enkephalin and endomorphin mimetics” (J Med Chem, 2002).

Assays:
Opioid receptor = Opioid receptor (Rattus norvegicus, UniProt P33533+P34975+P33535); assay: Inhibition of [3H]-Naloxone binding to opioid receptor in rat cerebral cortex; type: tissue-based
[1] = biological target: T1, Opioid receptor (Rattus norvegicus) (UniProt P33533+P34975+P33535); assay: Inhibition of [3H]naloxone binding to opioid receptor in rat cerebral cortex at 1 uM; type: tissue-based
T1 sequence (P33533 whole entry, looked up): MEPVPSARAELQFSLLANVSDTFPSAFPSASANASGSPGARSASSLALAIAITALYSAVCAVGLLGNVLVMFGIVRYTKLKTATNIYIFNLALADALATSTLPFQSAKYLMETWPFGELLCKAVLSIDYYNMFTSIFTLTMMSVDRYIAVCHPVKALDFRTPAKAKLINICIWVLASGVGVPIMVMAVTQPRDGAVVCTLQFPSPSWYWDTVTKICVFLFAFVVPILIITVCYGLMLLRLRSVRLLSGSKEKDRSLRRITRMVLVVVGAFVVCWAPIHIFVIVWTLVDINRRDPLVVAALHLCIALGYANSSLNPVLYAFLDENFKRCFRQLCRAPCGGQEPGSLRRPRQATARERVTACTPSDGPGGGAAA
T1 sequence (P33535 whole entry, looked up): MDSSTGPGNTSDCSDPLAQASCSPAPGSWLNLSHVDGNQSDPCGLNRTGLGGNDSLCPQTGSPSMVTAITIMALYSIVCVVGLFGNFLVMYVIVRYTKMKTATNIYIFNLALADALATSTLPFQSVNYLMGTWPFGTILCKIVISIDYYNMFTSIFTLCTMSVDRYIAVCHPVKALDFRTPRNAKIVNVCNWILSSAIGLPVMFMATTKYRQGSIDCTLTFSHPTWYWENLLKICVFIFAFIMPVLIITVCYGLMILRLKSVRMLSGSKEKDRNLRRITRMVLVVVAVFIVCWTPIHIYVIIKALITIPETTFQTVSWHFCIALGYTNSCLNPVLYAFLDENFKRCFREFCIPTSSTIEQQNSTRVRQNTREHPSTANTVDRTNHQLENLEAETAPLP
T1 sequence (P34975 whole entry, looked up): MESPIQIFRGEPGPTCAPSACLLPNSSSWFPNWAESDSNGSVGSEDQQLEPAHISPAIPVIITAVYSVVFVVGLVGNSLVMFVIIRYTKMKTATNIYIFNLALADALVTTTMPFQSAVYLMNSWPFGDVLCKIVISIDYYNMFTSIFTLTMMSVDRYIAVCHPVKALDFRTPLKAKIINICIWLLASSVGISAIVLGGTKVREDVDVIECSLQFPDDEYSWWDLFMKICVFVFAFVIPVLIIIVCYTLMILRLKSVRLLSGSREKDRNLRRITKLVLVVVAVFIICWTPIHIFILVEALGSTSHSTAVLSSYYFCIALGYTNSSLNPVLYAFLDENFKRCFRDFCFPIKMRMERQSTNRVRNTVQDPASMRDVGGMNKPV

[2] = biological target: Kappa-type opioid receptor (Homo sapiens) (UniProt P41145); assay: Ability to displace [3H]-U 69593 from human Opioid receptor kappa 1 at 0.1 uM
Chain of Kappa-type opioid receptor (Homo sapiens) (P41145 whole entry): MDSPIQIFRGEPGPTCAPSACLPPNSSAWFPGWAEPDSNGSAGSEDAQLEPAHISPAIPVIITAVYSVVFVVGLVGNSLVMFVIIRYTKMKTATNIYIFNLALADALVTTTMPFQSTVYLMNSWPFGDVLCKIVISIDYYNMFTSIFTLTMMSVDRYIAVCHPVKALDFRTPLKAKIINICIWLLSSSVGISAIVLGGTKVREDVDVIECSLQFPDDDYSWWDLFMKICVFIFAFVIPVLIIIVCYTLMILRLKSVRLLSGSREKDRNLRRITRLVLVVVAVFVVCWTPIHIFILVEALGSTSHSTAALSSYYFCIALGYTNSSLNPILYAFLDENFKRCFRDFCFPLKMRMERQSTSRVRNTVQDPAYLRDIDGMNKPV

[3] = biological target: Mu-type opioid receptor (Homo sapiens) (UniProt P35372); assay: Ability to displace [3H]DAMGO from human Opioid receptor mu 1 at 0.1 uM.
Chain of Mu-type opioid receptor (Homo sapiens) (P35372 whole entry): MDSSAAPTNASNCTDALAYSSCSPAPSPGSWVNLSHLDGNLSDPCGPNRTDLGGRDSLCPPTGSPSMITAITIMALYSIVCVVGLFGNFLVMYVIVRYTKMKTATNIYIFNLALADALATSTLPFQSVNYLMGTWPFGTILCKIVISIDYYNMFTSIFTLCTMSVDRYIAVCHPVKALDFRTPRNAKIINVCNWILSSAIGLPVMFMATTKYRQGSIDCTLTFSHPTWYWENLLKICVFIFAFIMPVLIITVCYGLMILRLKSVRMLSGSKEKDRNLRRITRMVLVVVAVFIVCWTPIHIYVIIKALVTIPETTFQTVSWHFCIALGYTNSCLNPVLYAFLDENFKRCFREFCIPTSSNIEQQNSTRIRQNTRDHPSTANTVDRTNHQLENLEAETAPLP

[4] = biological target: T1, Opioid receptor (Rattus norvegicus); assay: Inhibition of [3H]naloxone binding to opioid receptor in rat cerebral cortex at 0.1 uM; type: tissue-based
[5] = biological target: delta opioid receptor (Homo sapiens) (UniProt P41143); assay: Displacement of [3H]DPDPE from human delta opioid receptor at 0.1 uM
Chain of delta opioid receptor (Homo sapiens) (P41143 whole entry, looked up): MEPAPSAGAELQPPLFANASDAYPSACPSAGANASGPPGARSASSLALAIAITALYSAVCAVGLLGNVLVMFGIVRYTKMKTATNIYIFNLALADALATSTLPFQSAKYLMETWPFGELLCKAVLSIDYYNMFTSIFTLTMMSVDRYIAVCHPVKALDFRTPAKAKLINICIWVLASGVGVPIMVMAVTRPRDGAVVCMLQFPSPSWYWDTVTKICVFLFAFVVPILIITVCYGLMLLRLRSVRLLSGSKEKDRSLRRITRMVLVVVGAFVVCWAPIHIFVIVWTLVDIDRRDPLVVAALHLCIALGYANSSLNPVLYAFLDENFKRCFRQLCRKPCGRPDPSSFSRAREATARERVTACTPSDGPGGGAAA

[6] = biological target: Mu-type opioid receptor (Homo sapiens) (UniProt P35372); assay: Ability to displace [3H]-DAMGO from human Opioid receptor mu 1 at 0.1 uM

Row | SMILES | IC50 (Opioid receptor) [µM] | inhibition [1] [%] | Selectivity [2] [%] | Selectivity [3] [%] | inhibition [4] [%] | Selectivity [5] [%] | Selectivity [6] [%]
1 | CCCCCNC(=O)[C@H](CCc1ccccc1)NC(=O)CCNC(=O)OCCc1ccc(O)cc1 | > 1 | < 10 | – | – | – | – | –
2 | CCCCCN1C[C@@H]2N(C(=O)OCCc3ccc(O)cc3)CCC(=O)N2[C@@H](CCc2ccccc2)C1=O | 0.027 | 99 | < 10 | – | 79 | < 10 | 91

The remaining lines, values ahead:

Row | IC50 (Opioid receptor) [µM] | inhibition [1] [%] | Selectivity [2] [%] | Selectivity [3] [%] | inhibition [4] [%] | Selectivity [5] [%] | Selectivity [6] [%] | SMILES
3 | 0.149 | 84 | – | – | – | – | – | CCCCCN1C[C@@H]2N(C(=O)OCCc3ccc(O)cc3)CCC(=O)N2[C@@H](Cc2ccccc2)C1=O
4 | 0.08 | 96 | – | – | – | – | – | O=C1[C@H](Cc2ccccc2)N2C(=O)CCN(C(=O)OCCc3ccc(O)cc3)[C@H]2CN1CCc1ccccc1
5 | 0.009 | – | < 10 | 101 | 91 | < 10 | – | O=C1[C@H](CCc2ccccc2)N2C(=O)CCN(C(=O)OCCc3ccc(O)cc3)[C@H]2CN1CCc1ccccc1
